According to patent US20250051316A1, “2-(ARYL-2-YL) […] […], PREPARATION METHOD THEREFOR AND APPLICATION THEREOF” (SHANGHAI HANSOH BIOMEDICAL CO., LTD., priority 2021, published 2025):
Marks after values point to notes of the source that are not given here.

Assays:
ADRA1A receptor = target: T1, ADRA1A receptor (Homo sapiens, UniProt P35348); assay: Effect on calcium current in cells which stably express ADRA1A receptor; type: cell-based
T1 construct: expressed in transfected cells
T1 sequence (P35348 1-466): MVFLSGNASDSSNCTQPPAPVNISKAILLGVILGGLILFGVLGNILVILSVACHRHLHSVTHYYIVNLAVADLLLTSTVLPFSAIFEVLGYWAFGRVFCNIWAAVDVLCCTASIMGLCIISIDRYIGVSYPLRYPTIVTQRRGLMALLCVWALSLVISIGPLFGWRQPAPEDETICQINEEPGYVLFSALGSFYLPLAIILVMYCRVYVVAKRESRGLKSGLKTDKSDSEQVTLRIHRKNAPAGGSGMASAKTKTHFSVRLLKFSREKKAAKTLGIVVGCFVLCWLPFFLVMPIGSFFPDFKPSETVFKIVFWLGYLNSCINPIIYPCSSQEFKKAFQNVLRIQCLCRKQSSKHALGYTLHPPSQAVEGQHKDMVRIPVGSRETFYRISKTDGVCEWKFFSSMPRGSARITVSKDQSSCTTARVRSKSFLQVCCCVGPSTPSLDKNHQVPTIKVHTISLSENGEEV
Experimental: Test Example 4. Determination of the Effect of the Present Compounds on Calcium Current in the Cells which Stably Express ADRA1A Receptor
Determination of the activation effect of the compounds on ADRA1A receptors.
1) Flp In-CHO-ADRA1A Stable Pool cell lines were cultured in complete medium at 37° C., 5% CO2 to 70%-90% fusion.
2) Complete culture medium: Ham's F12K+10% FBS+1*Penicillin−Streptomycin+600 μg/mL Hygromycin B; Cell inoculation medium: Ham's F12K++10% FBS; Experimental buffer: 1×HBSS+20 mM HEPES
3) After TrypLE digestion, the cells were re-suspended in the inoculation medium and inoculated in 384 well cell culture plate (Corning, 3764). 7000 cells were inoculated into each well and incubated overnight at 37° C. and 5% CO2.
4) 20× Component A was freeze-thaw to room temperature, and then diluted with experimental buffer to 2× working concentration including 5 mM Probenecid, which was then placed at room temperature for use.
5) The cell culture plate was taken out, and let to stand at room temperature for 10 minutes. The plate was subject to inverted centrifugation at 200 g, and RT centrifugation for 1 second, and then 20 μL Assay buffer was quickly added to the cell culture plate. Then 20 μL 2× Component A containing 5 mM Probenecid was added to each experimental well, which was centrifuged by RT at 200 g for 3-5 seconds, and incubated at 37° C. for 2 hours.
6) The working solution (5×) for the compound to be tested was prepared and placed and at room temperature for use.
7) The cell culture plate was taken out and let to stand at room temperature for 10 minutes.
8) 10 μL diluteSd compound working solution in step 6) was added to each the experimental well using FLIPR Tetra and data were collected.
[formula] • 5) EC50 of the compounds was calculated by GraphPad nonlinear fitting formula:
[formula] • X: Log value of the compound concentration; Y: Activation %

[1] = tested on: C57BL/6 mice, high spontaneous activity induced by phencyclidine (PCP); assay: High spontaneous activity model of mice induced by phencyclidine (PCP); type: in vivo; conditions: 60 minutes after modeling
Text: Test Example 2. Pharmacodynamic Evaluation of the Present Compounds in Mice Model of High Spontaneous Activity Induced by Phencyclidine (PCP)
The purpose of the experiment is to evaluate the efficacy of compounds in a high spontaneous activity model of C57BL/6 mice induced by phencyclidine (PCP) using the spontaneous activity method.
C57BL/6 mice, provided by Shanghai Lingchang Biotechnology Co., Ltd., male, 6-8 weeks, 20-24 g, 36 mice.
The day before the experimental test, the animals were placed in the laboratory and acclimated for 8 hours.
On the day of adaptation, the animals were randomly grouped according to their weight.
The animals were weithed and treated with solvent control (20% HP-3-CD), compounds of the present invention (oral administration) respectively. 30 minutes later, modeling (intraperitoneal administration) was performed, and the animals were given physiological saline or phencyclidine, with dosage volume of 10 mL/kg.
After the administration, the animals were placed in observation box and the spontaneous activity was detected for 30 minutes. The moving distance (meters) of the animals in the observation box was counted every 5 minutes.
After 30 minutes, the animals were taken out for modeling and then placed in the observation box to test their spontaneous activity for 60 minutes. The moving distance (meters) of the animals in the observation box was counted every 5 minutes.
Excel software was used to collect data. A Two-Way ANOVA or One-Way ANOVA was conducted used Prism (Graph pad software, Inc.) software. p<0.05 was considered significant difference.

[2] = Pharmacokinetic assay of Balb/c mice, plasma and brain, oral; type: in vivo; conditions: male, mouse, p.o. 5 mg/kg
Experimental: Test Example 3. Pharmacokinetic Assay of Balb/c Mice
Balb/c Mice were used as test animals. The pharmacokinetic behavior of the compounds of the present invention was studied in the plasma and brain of mice administered orally at the dose of 5 mg/kg.
Balb/c Mice, male, Shanghai Jiesijie Experimental Animal Co., Ltd., animal production license number (SCXK (Shanghai) 2013-0006 N0.311620400001794).
After fasting overnight, 24 male Balb/c mice were administered p.o. at a dose of 5 mg/kg and an administration volume of 10 mL/kg, respectively.
Drug formulation for oral administration: 0.5% CMC-Na (1% Tween 80).
After CO2 euthanasia of experimental animals, heart blood and brain tissue were collected at 0.25 h, 0.5 h, 1 h, 2 h, 4 h, 6 h, 8 h, and 24 h after administration. The blood was placed in EDTA-2K tubes and centrifuged at 4° C. and 6000 rpm for 6 minutes to separate plasma. The brain tissue was washed with pre-cooled PBS, dried, weighed, and stored at −80° C. The animals were feed 4 hours after administration.
1) 160 μL of acetonitrile was added to 40 μL of the plasma sample for precipitation, and then the mixture was centrifuged at 3500×g for 5-20 min.
2) 100 μL of the supernatant was taken to analyze the concentration of the test compound by LC/MS/MS.
• Liquid chromatography condition: Shimadzu LC-20AD pump • Mass spectrometry condition: AB Sciex API 4000 mass spectrometer • Chromatographic column: phenomenex Gemiu 5 μm C18 50×4.6 mm • Mobile phase: Eluent A was 0.10% formic acid in water, and Eluent B was acetonitrile • Flow rate: […] • Elution time: 0-4.0 minutes, the eluent is as follows:
The main pharmacokinetic parameters were calculated using WinNonlin8.1, and the results of the pharmacokinetic experiments in mouse are shown in the table below.

[3] = compound 3 mg/kg oral + PCP 5 mg/kg i.p.
[4] = compound 1 mg/kg oral + PCP 5 mg/kg i.p.

Compound	EC50 (ADRA1A receptor) [nM]	Total distance (m, Mean ± SEM) 60 minutes [1, 3]	AUC(0-t) ([2]; Brain) [ng·h/mL]	Cmax ([2]; Brain) [ng/mL]	Tmax ([2]; Brain) [min]	half-life ([2]; Brain) [min]	AUC(0-t) ([2]; Plasma) [ng·h/mL]	Cmax ([2]; Plasma) [ng/mL]	Tmax ([2]; Plasma) [min]	half-life ([2]; Plasma) [min]	Total distance (m, Mean ± SEM) 60 minutes [1, 4]	Total distance (m, Mean ± SEM) 60 minutes ([1]; compound 10 mg/kg oral + PCP 5 mg/kg i.p.)
[2H]C1([2H])COC(c2cccc(C)n2)CN1 (single isomer, unassigned) [Example 10-2, 2-(6-Methylpyridin-2-yl)morpholin-5,5-d2]	1170	152.6*** m	12500	3540	30	150	5430	1320	15	144	–	–
[2H]C1([2H])CO[C@@H](c2ccc(F)cn2)CN1 (single isomer, unassigned) [Example 17-2, 2-(5-fluoropyridin-2-yl)morpholin-5,5-d2]	3170	114.1*** m	7500	3160	30	–	2630	1450	15	78	140.1*** m	–
[2H]C1([2H])CO[C@H](c2ccc(F)cc2)CN1 (single isomer, unassigned) [Example 33-1, 2-(4-Fluorophenyl)morpholin-5,5-d2]	1410	126.3*** m	15300	8360	15	192	5030	1970	15	192	136.4*** m	83.23*** m
